From PMC3089676 (Journal of the American Chemical Society, 2010)

Columns and labels:
Format in all cases: biochemical
[1] = biological target: T1, HcyF (WS1006) (Wolinella succinogenes, UniProt Q7M9D2); experiment: HPLC detection of AMP formation; details: HcyS-Ala and HcyD present; MgCl2; room temperature
T1 sequence (Q7M9D2 1-272): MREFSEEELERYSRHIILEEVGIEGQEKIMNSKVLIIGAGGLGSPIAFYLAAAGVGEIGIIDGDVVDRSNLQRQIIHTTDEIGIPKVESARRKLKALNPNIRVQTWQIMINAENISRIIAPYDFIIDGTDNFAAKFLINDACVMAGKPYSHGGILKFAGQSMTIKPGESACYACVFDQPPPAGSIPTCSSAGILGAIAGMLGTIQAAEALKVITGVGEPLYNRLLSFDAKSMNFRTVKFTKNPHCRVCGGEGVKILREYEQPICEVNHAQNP

[2] = biological target: T2, MetY (WS1012) (Wolinella succinogenes, UniProt Q7M9C8); experiment: MALDI-MS of HcyS-homocysteine formation; details: HcyS-COSH as sulfur donor; room temperature
T2 sequence (Q7M9C8 1-407): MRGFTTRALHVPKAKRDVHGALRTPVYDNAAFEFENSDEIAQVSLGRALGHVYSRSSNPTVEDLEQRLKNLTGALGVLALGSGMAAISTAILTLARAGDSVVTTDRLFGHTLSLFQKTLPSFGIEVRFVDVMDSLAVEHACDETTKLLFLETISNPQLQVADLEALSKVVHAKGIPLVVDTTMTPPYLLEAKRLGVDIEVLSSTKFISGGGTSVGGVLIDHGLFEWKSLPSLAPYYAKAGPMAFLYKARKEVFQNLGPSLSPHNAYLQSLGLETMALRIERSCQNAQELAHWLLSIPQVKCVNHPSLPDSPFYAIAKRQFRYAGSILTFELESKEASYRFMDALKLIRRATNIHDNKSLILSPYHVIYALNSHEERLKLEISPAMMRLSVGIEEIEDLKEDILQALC

[3] = biological target: T3, HcyD (WS1005) (Wolinella succinogenes, UniProt Q7MRV8); experiment: 1H-NMR of released alanine; details: released from HcyS-Ala (protein substrate); pH 8.0; room temperature
T3 sequence (Q7MRV8 1-130): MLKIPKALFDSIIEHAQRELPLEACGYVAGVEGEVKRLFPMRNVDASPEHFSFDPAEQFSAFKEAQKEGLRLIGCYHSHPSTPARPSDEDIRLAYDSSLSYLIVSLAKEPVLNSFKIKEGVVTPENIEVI

`Nc1ncnc2c1ncn2[C@@H]1O[C@H](COP(=O)(O)OP(=O)(O)OP(=O)(O)O)[C@@H](O)[C@H]1O` [ATP] was tested, and the “HPLC detection of AMP formation” value [1] was “AMP formation was dependent on HcyF, HcyS-Ala and HcyD”.

With `CC(=O)OCC[C@H](N)C(=O)O` [O-acetyl-L-homoserine] the “MALDI-MS of HcyS-homocysteine formation” value [2] was “catalyzed the reaction of HcyS-COSH with O-acetyl-L-homoserine to form HcyS-Homocysteine”.

`C[C@H](N)C(=O)O` [alanine] was tested, and the “1H-NMR of released alanine” value [3] was 1H-NMR analysis of the small-molecule product confirmed the release of alanine from HcyS-Ala.
